Assay results: paper PMC12396409, “Screening and hit evaluation of a microbial metabolite library against the pathogenic Plasmodium falciparum and Toxoplasma gondii parasites” (International Journal for Parasitology: Drugs and Drug …, 2025)
Read-outs that look alike come from different tables or passages of the source.

Assays:
[1] = test system: P. falciparum 3D7 parasites; test: P. falciparum growth inhibition assay, 2-cycle (120 h treatment), delayed-death screen and dose-response; format: cell-based, Plasmodium falciparum; conditions: for activity at 2 µg/mL: Plasmodium falciparum
[2] = test system: P. falciparum 3D7 parasites; test: P. falciparum growth inhibition assay, 1-cycle (72 h treatment), SYBR DNA staining (library screen at 2 μg/mL and dose-response); format: cell-based, Plasmodium falciparum; conditions: 72 h; for activity at 2 µg/mL: Plasmodium falciparum
[3] = test system: T. gondii RH strain (RH-Tub-eYFP) tachyzoites; test: microbe, parasite or virus in culture; format: cell-based, Toxoplasma gondii; conditions: 72 h; for percent parasite growth at 2 µg/mL: Toxoplasma gondii
[4] = library screen at 2 μg/mL, 120 h, % growth, replicate 1
[5] = library screen at 2 μg/mL, 120 h, % growth, replicate 2
[6] = library screen at 2 μg/mL, % growth, replicate 1
[7] = library screen at 2 μg/mL, % growth, replicate 2
[8] = T. gondii, screen at 2 μg/mL, replicate 1, read-out: Tg_72h_%Growth_Rep1
[9] = T. gondii, screen at 2 μg/mL, replicate 2, read-out: Tg_72h_%Growth_Rep2

Enniatin A1
Pf_120h_%Growth_Rep1 [1, 4]: 8.66% | Pf_120h_%Growth_Rep2 [1, 5]: 18.71% | Pf_72h_%Growth_Rep1 [2, 6]: 5.31% | Pf_72h_%Growth_Rep2 [2, 7]: 1.97% | Tg_72h_%Growth_Rep1 [3, 6]: -0.69% | Tg_72h_%Growth_Rep2 [3, 7]: 13.13%

COc1cc(C(=O)O)c2c(c1C)OC(=O)c1c(C)cc(O)c(C=O)c1O2 [Psoromic acid]
activity at 2 µg/mL ([1]; 3D7, P. falciparum, 120 h, parasite screen 2 μg/mL, % growth, replicate 1, read-out: Pf_120h_%Growth_Rep1): 90.8% | activity at 2 µg/mL ([1]; 3D7, P. falciparum, 120 h, parasite screen 2 μg/mL, % growth, replicate 2, read-out: Pf_120h_%Growth_Rep2): 141% | activity at 2 µg/mL ([2]; 3D7, P. falciparum, parasite screen 2 μg/mL, % growth, replicate 1, read-out: Pf_72h_%Growth_Rep1): 92.3% | activity at 2 µg/mL ([2]; 3D7, P. falciparum, parasite screen 2 μg/mL, % growth, replicate 2, read-out: Pf_72h_%Growth_Rep2): 123% | percent parasite growth at 2 µg/mL ([3]; T. gondii, parasite screen 2 μg/mL, % growth, replicate 1, read-out: Tg_72h_%Growth_Rep1): 127% | percent parasite growth at 2 µg/mL ([3]; T. gondii, parasite screen 2 μg/mL, % growth, replicate 2, read-out: Tg_72h_%Growth_Rep2): 82.8%

CC[C@@H]1/C=C(\C)C[C@H](C)C[C@H](OC)[C@H]2O[C@@](O)(C(=O)C(=O)N3CCCC[C@H]3C(=O)O[C@H](/C(C)=C/[C@@H]3CC[C@@H](O)[C@H](OC)C3)[C@H](C)[C@@H](O)CC1=O)[C@H](C)C[C@@H]2OC [Ascomycin]
activity at 2 µg/mL ([1]; 3D7, library screen at 2 μg/mL, 120 h, % growth, replicate 1, read-out: Pf_120h_%Growth_Rep1): 70.5% | activity at 2 µg/mL ([1]; 3D7, library screen at 2 μg/mL, 120 h, % growth, replicate 2, read-out: Pf_120h_%Growth_Rep2): 40.4% | activity at 2 µg/mL ([2]; 3D7, library screen at 2 μg/mL, % growth, replicate 1, read-out: Pf_72h_%Growth_Rep1): 44.9% | activity at 2 µg/mL ([2]; 3D7, library screen at 2 μg/mL, % growth, replicate 2, read-out: Pf_72h_%Growth_Rep2): 50.6% | percent parasite growth at 2 µg/mL ([3]; library screen at 2 μg/mL, % growth, replicate 1, read-out: Tg_72h_%Growth_Rep1): 79.9% | percent parasite growth at 2 µg/mL ([3]; library screen at 2 μg/mL, % growth, replicate 2, read-out: Tg_72h_%Growth_Rep2): 79.4%

Nc1ncnc2c1ncn2[C@@H]1O[C@H](CO)C[C@H]1O [Cordycepin]
activity at 2 µg/mL ([1]; 3D7, P. falciparum, 120 h, screen at 2 μg/mL, replicate 1, read-out: Pf_120h_%Growth_Rep1): 24.5% | activity at 2 µg/mL ([1]; 3D7, P. falciparum, 120 h, screen at 2 μg/mL, replicate 2, read-out: Pf_120h_%Growth_Rep2): 12.4% | activity at 2 µg/mL ([2]; 3D7, P. falciparum, screen at 2 μg/mL, replicate 1, read-out: Pf_72h_%Growth_Rep1): 22.1% | activity at 2 µg/mL ([2]; 3D7, P. falciparum, screen at 2 μg/mL, replicate 2, read-out: Pf_72h_%Growth_Rep2): 11.8% | percent parasite growth at 2 µg/mL [3, 8]: 80% | percent parasite growth at 2 µg/mL [3, 9]: 99.7%

CO[C@@H]1[C@@H](O[C@@H]2O[C@H](C)[C@@H](O[C@H]3C[C@@](C)(O)[C@@H](O)[C@H](C)O3)[C@H](N(C)C)[C@H]2O)[C@@H](CC=O)C[C@@H](C)[C@@H](O[C@H]2CC[C@H](N(C)C)[C@@H](C)O2)/C=C/C=C/C[C@@H](C)OC(=O)C[C@H]1O [Spiramycin I, reference compound]
2) Growth (%) at 120 h ([1]; P. falciparum, 2 μg/mL, 120 h): 11.98% | Pf_120h_%Growth_Rep1 ([1]; P. falciparum, 120 h, parasite screen 2 μg/mL, % growth, replicate 1): 15.80% | Pf_120h_%Growth_Rep2 ([1]; P. falciparum, 120 h, parasite screen 2 μg/mL, % growth, replicate 2): 8.16% | 3) Fold change (72 h/120 h) ([1]; P. falciparum, growth at 72 h / growth at 120 h, 2 μg/mL): 6.0 | 1) Growth (%) at 72 h ([2]; P. falciparum, 2 μg/mL): 71.72% | Pf_72h_%Growth_Rep1 ([2]; P. falciparum, parasite screen 2 μg/mL, % growth, replicate 1): 60.09% | Pf_72h_%Growth_Rep2 ([2]; P. falciparum, parasite screen 2 μg/mL, % growth, replicate 2): 83.34% | Tg_72h_%Growth_Rep1 ([3]; T. gondii, parasite screen 2 μg/mL, % growth, replicate 1): 20.85% | Tg_72h_%Growth_Rep2 ([3]; T. gondii, parasite screen 2 μg/mL, % growth, replicate 2): 24.90%

CC1=C[C@H]2O[C@@H]3[C@H](O)C[C@](C)([C@@]2(CO)[C@H](O)C1=O)[C@]31CO1 [Deoxynivalenol]
Pf_120h_%Growth_Rep1 [1, 4]: 19.31% | Pf_120h_%Growth_Rep2 [1, 5]: 5.93% | Pf_72h_%Growth_Rep1 [2, 6]: -0.53% | Pf_72h_%Growth_Rep2 [2, 7]: -5.17% | Tg_72h_%Growth_Rep1 [3, 6]: -0.04% | Tg_72h_%Growth_Rep2 [3, 7]: 0.56%

C=C1[C@@H](C)[C@H]2[C@H](Cc3ccccc3)NC(=O)[C@]23[C@H](OC(C)=O)/C=C/[C@@](C)(O)C(=O)[C@@H](C)C/C=C/[C@H]3[C@@H]1O [Cytochalasin D]
activity at 2 µg/mL ([1]; 3D7, 120 h, P. falciparum, 120 h, screen at 2 μg/mL, replicate 1, read-out: Pf_120h_%Growth_Rep1): 3.12% | activity at 2 µg/mL ([1]; 3D7, 120 h, P. falciparum, 120 h, screen at 2 μg/mL, replicate 2, read-out: Pf_120h_%Growth_Rep2): 4.41% | activity at 2 µg/mL ([2]; 3D7, 72 h, P. falciparum, screen at 2 μg/mL, replicate 1, read-out: Pf_72h_%Growth_Rep1): 6.33% | activity at 2 µg/mL ([2]; 3D7, 72 h, P. falciparum, screen at 2 μg/mL, replicate 2, read-out: Pf_72h_%Growth_Rep2): 2.44% | percent parasite growth at 2 µg/mL [3, 8]: 2.17% | percent parasite growth at 2 µg/mL [3, 9]: 2.65%

CO[C@H]1\C=C/C=C\C=C/C[C@H](OC(=O)[C@@H](C)NC(=O)C2CCCCC2)[C@H](C)[C@@H](O)/C(C)=C\CCc2cc(O)cc(c2O)NC(=O)C1 [Ansatrienin B]
Pf_120h_%Growth_Rep1 [1, 4]: -0.38% | Pf_120h_%Growth_Rep2 [1, 5]: 4.42% | Pf_72h_%Growth_Rep1 [2, 6]: 4.68% | Pf_72h_%Growth_Rep2 [2, 7]: 7.24% | Tg_72h_%Growth_Rep1 [3, 6]: 19.16% | Tg_72h_%Growth_Rep2 [3, 7]: 11.14%
